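48-hour exposure; five concentrations; linearly interpolated endpoints. GI50 marks 50% less growth. Definition used: TGI = concentration required for complete inhibition of growth.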 Where only a bound is given, the exact number is not on record here.

What is called GI50 is the concentration giving 50% growth inhibition. As usually defined, the TGI is the concentration at which net growth stops. Low readings indicate more potent growth arrest, high ones less potent growth arrest.

Assay in all cases: DTP human tumour cell line panel, 48 h
In assay [1] the test system is LOX IMVI melanoma.
Assay [2] relates to NCI-H226 lung.
The subject of assay [3] is NCI/ADR-RES ovarian.
For assay [4], the system named is OVCAR-3 ovarian.
Assay [5] has as its system RPMI-8226 leukemia.
Assay [6] concerns SF-539 CNS.
For assay [7], the system named is SK-MEL-2 melanoma.
For assay [8], the system named is SW-620 colon.

For the molecule `N#Cc1cccc(Nc2nccc(-c3cnn4ncccc34)n2)c1`, the GI50 in assay [1] was 0.00279 µM; in assay [2], 0.00513 µM; in assay [3], 0.00697 µM; in assay [4], 0.00541 µM; in assay [5] it was 0.00763 µM; in assay [6], 0.00381 µM. The GI50 in assay [7] was 0.00458 µM; in assay [8], 0.00602 µM. For the same molecule, the TGI in assay [1] was over 8.75 µM; in assay [2], 0.0152 µM; in assay [4] it was 0.015 µM; in assay [5], 0.0212 µM; in assay [6] it was 0.0154 µM; in assay [7], 0.0105 µM. In assay [8], this molecule registered a TGI of over 25 µM.

For `NC1=C(c2nc(-c3cc4ccccc4oc3=O)cs2)C(c2ccco2)c2c(c3ccccc3oc2=O)O1` (stereo not drawn), the GI50 in assay [1] was over 150 mg/L; in assay [2], 43.1 mg/L; in assay [3], over 150 mg/L; in assay [4], over 150 mg/L; in assay [6] it was 96.9 mg/L; in assay [7] it was 43.6 mg/L. In addition, in assay [8], the GI50 was over 150 mg/L. For the same molecule, the TGI in assay [1] was over 150 mg/L; in assay [2] it was 131 mg/L; in assay [3], over 150 mg/L; in assay [4], over 150 mg/L; in assay [6], over 150 mg/L; in assay [7], 112 mg/L. In assay [8], this molecule came in with a TGI of over 150 mg/L.

As for `CC1=COC2=C(C)C(=O)C(=O)c3c(C)ccc1c32`, the TGI in assay [1] is 16 µM; in assay [2] it was 68.9 µM; in assay [3], 7.87 µM; in assay [5], 97.2 µM; in assay [6], 10.7 µM; in assay [7], over 40.1 µM. In assay [8], this molecule returned a TGI of 28.9 µM.

For the molecule `COc1ccc(OC)c(-c2nc3sccn3c2/C=C2/C(=O)Nc3ccccc32)c1`, the GI50 in assay [1] was 2.82 µM; in assay [2], 1.4 µM; in assay [3], 1.42 µM; in assay [4] it was 0.235 µM; in assay [5] it was 0.241 µM; in assay [7], 0.713 µM. For the same molecule, in assay [8], the GI50 was 0.506 µM. For the same molecule, the total growth inhibition concentration (TGI) is 35.1 µM in assay [1]; 4.89 µM in assay [2]; 7.76 µM in assay [3]; 0.586 µM in assay [4]; 0.856 µM in assay [5]; 29.4 µM in assay [7]. For the same molecule, in assay [8], the TGI was 21.4 µM.

`C/C=C(/C)C(=O)OC1C=C(CO)C(=O)C(OC(=O)/C(C)=C\C)C1C(C)C` (stereo not drawn): the GI50 in assay [1] is 0.604 µM; in assay [2], 2.41 µM; in assay [3] it was 1.57 µM; in assay [4] it was 0.48 µM; in assay [5], 0.337 µM; in assay [6], 1.38 µM. The GI50 in assay [7] was 1.82 µM. In addition, the TGI is 1.75 µM in assay [1]; 6.01 µM in assay [2]; 6.11 µM in assay [3]; 1.66 µM in assay [4]; 1.37 µM in assay [5]; 2.69 µM in assay [6]. In assay [7], this molecule yielded a TGI of 3.47 µM.

With `N#Cc1c(NC(=O)CCC(=O)O)ccc2ccccc12`, the TGI in assay [2], in assay [3], in assay [4], in assay [5], in assay [6] and in assay [7] was over 100 µM each time. The molecule further gave a TGI in assay [8] of over 100 µM.

For `COC(=O)/C(=C/N1CCN(C(=O)c2ccco2)C1=S)C(C)=O`, the GI50 in assay [1] is 1.59 µM; in assay [3] it was 22.2 µM; in assay [4], 2.67 µM; in assay [5] it was 5.49 µM; in assay [7], 15.2 µM; in assay [8], 3.9 µM. Moreover, the TGI was 3.99 µM in assay [1]; 56.8 µM in assay [3]; 11.6 µM in assay [4]; over 100 µM in assay [5]; 51 µM in assay [7]; 12.5 µM in assay [8].

For `Clc1ccc2c(NCCCN3CCN(c4nc(-n5ccnc5)nc5ccccc45)CC3)ccnc2c1`, the GI50 in assay [1] was 1.84 µM; in assay [2], over 100 µM; in assay [4] it was 1.55 µM; in assay [5], 2.21 µM; in assay [6], 1.81 µM; in assay [7], 12.3 µM. The TGI in assay [1] is 3.69 µM; in assay [2], over 100 µM; in assay [4], 3.15 µM; in assay [5], 5.19 µM; in assay [6] it was 3.34 µM; in assay [7] it was over 22.1 µM.

As to `CC1=CC(C)C(O)C(C)/C=C/C(O)C/C=C(/C)C(=O)CC(O)C(C)\C=C/C=C/C=C\C(=O)NC2=C(O)c3cc(C)c(O)c(c3C(=O)C2=O)C1=O` (stereo not drawn), the TGI in assay [1], in assay [3], in assay [4], in assay [5], in assay [6] and in assay [7] was over 100 µM each time. The same molecule returned a TGI in assay [8] of over 100 µM.

For `O=C(NCCNCCO)c1ccc2oc3cc4ccccc4c(=O)n3c2c1`, the GI50 in assay [1] is 6.72 µM; in assay [3] it was over 50 µM; in assay [5], 12.5 µM; in assay [7], 6.52 µM; in assay [8] it was 5.93 µM. In addition, the TGI in assay [1] is 14 µM; in assay [3], over 50 µM; in assay [5], 35.6 µM; in assay [7], 15.5 µM; in assay [8], 14.7 µM.

For `O=C1/C(=C\c2ccccc2)c2ccccc2N1Cc1ccccc1`, the TGI in assay [1] was found to be 17 µM; in assay [2], 35.6 µM; in assay [3], 19.2 µM; in assay [4], 11.9 µM; in assay [5], 9.28 µM; in assay [7] it was 17.1 µM. This molecule gave a total growth inhibition concentration (TGI) in assay [8] of 15.1 µM.

For the molecule `C[C@]12CC[C@@H]3c4ccc(O)cc4CC[C@H]3[C@@H]1CC[C@@H]2NS(=O)(=O)c1cccc(Br)c1`, the GI50 in assay [1] was 3.13 µM; in assay [2], 3.19 µM; in assay [3], 3.14 µM; in assay [5], 3.41 µM; in assay [6], 2.6 µM; in assay [7], 3.68 µM. Further, in assay [8], the GI50 was 4.07 µM. For the same molecule, the TGI was 11.6 µM in assay [1]; 15.6 µM in assay [2]; 13.6 µM in assay [3]; 17.3 µM in assay [5]; 8.8 µM in assay [6]; 12 µM in assay [7]. The molecule also returned a TGI in assay [8] of 18 µM.

Source of the values: PubChem BioAssay (NCI).
